Results reported in US11447535B2, “GLP-1 analogues” (Sun Pharmaceutical Industries Limited, priority 2018, dated 2022).
Marks after values point to notes of the source that are not given here.

Key:
SD rats = experiment: Oral glucose tolerance test (OGTT) in rats; single injection; 1 mg/kg; type: in vivo; design: Change in AUC (mg/dL*min): unit not given here; conditions: for Blood Glucose AUC (mg/dL*min) Mean / Change in AUC (mg/dL*min): OGTT, 1 mg/Kg; for Blood Glucose AUC (mg/dL*min) Mean: Exp. 2; for Change in AUC (mg/dL*min): Exp. 2, vs control group
Experimental: (§1) Animals were divided into three groups—a normal control group, a test group and a third semaglutide group, with 4 animals in each group. The animals were fasted for 12 hours before initiation of OGTT. To the test group animals, the Compound 1 was injected subcutaneously at 1 mg/kg dose. To the semaglutide group, a dose of 1 mg/kg was injected subcutaneously. After 22 hrs, 166 hrs and 334 hrs of subcutaneous injection of test drug or semaglutide, blood glucose was measured with blood glucose meter (time 0 measurements). All the animals were then given 2 g/kg of glucose solution orally. Blood glucose was measured at 20, 40, 60, 90 and 120 minutes following glucose challenge. Body weight and food intake was recorded. Blood glucose data was analyzed using Two way ANOVA followed by Bonferroni posttests using PRISM (Graph Pad version 5.03). Data of Blood glucose AUC0-120 min, was analyzed using t test.
as §1, with “animals,” for “animals, the”, “1, Compound 13 and Compound 16 were” for “1 was”, “compound” for “drug”

[1] = Food intake and body weight recorded in the rat OGTT study; type: in vivo, rats; conditions: 1 mg/Kg; for Body Weight Change (%) Mean / Food Consumption (g) Mean: Exp. 2
Experimental: as §1
as §1, with “animals,” for “animals, the”, “1, Compound 13 and Compound 16 were” for “1 was”, “compound” for “drug”

[2] = tested on: db/db mice (diabetic mouse model); experiment: Separate db/db diabetic mouse study, q2d*15 up to day 28, recovery period day 29 to day 45; type: in vivo; conditions: for Blood Glucose AUC (Day 30-37) % Change vs Control / Blood Glucose AUC (Day 30-37) (mg/dL*days) Mean / Blood Glucose AUC (Day 38-45) % Change vs Control / Blood Glucose AUC (Day 38-45) (mg/dL*days) Mean: recovery period
Experimental: The study was performed in similar manner as above on diabetic mouse model. The animals were divided into three treatment groups—a diabetic control group, a test group and a semaglutide treatment group. The representative compounds of the present disclosure, Compound 1, Compound 13 and Compound 16, were injected subcutaneously at 3.04 or 6.078 nM dose (every alternate day up to day 28 (q2d*15). The same dosage regimen was administered in semaglutide treatment group. Measurements of blood glucose levels and body weight were done daily. % HbA1c, Insulin was measured on Day 0, day 14 and day 29. Cumulative food intake and body weight change was calculated on day 14 and 29. % HbA1c, Insulin data was analyzed by two way ANOVA followed by Bonferroni's posttests using PRISM (Graph Pad version 5.03). Whereas Blood Glucose AUC, Body weight change and Cumulative food intake data was analyzed by one way ANOVA followed by Bonferroni's posttests using PRISM (Graph Pad version 5.03). From day 29 to day 45, animals were kept on recovery period during which no drug treatment was given. Blood Glucose and Body weight was measured during this period. On day 45, Body weight Changes, % HbA1c, Insulin was measured.

[3] = earlier dose 3.04 nM (3.4 nM given for Compound 16)
[4] = recovery study, day 45, earlier dose 3.04 nM
[5] = recovery study, day 45, earlier dose 6.078 nM (6.0788 nM given for Compound 13)

Substance: Compound 16: SEQ ID NO: 05, acylated with Moiety D (HXXXGTFTSDVSSYLXGQAAXEFXAWLVRGRGXX; lipidated side chain; (2)..(2) Xaa = Aib; (3)..(3) Xaa = absent.; (4)..(4) Xaa = Glu.; (16)..(16) Xaa = Glu.; (21)..(21) Lys is substituted; (24)..(24) Xaa is Ile.; (33)..(33) Xaa is Leu.; (34)..(34) Xaa is absent.)
- Blood Glucose AUC (mg/dL*min) Mean (SD rats; 22 hr): 1646 mg·min/dL
- Change in AUC (mg/dL*min) (SD rats; 22 hr): −80.7
- Blood Glucose AUC (mg/dL*min) Mean (SD rats; 168 hr): 4283 mg·min/dL
- Change in AUC (mg/dL*min) (SD rats; 168 hr): −57.6
- Blood Glucose AUC (mg/dL*min) Mean (SD rats; 336 hr): 8295.0 mg·min/dL
- Change in AUC (mg/dL*min) (SD rats; 336 hr): −2.3
- reduction in blood glucose AUC (SD rats; after 168 hrs of injection, 1 mg/kg): about 60%
- Body Weight Change (%) Mean ([1]; 48 h): −10.7%
- Food Consumption (g) Mean ([1]; 48 h): 5.9 g
- Body Weight Change (%) Mean ([1]; 154 h): −7.0%
- Body Weight Change (%) Mean ([1]; 324 h): −4.3%
- Food Consumption (g) Mean ([1]; 324 h): 104.3 g
- food consumed vs animals administered with semaglutide ([1]; text on Table 8): consumed significantly less food
- lowering of body weight ([1]; text on Table 8): substantial lowering of body weight
- Blood Glucose AUC (Day 0-29) % Change Vs Control ([2]; 3.04 nM, q2d*15): −44.54%
- Blood Glucose AUC (Day 0-29) (mg/dL*days) Mean ([2]; 3.04 nM, q2d*15): 9399.0*** mg/dL*days
- Body Weight Change Day 29, % Change vs Day 0 Mean ([2]; 3.04 nM, q2d*15): −1.4%
- Cumulative Food Intake (g) Day 0-29 Mean ([2]; 3.04 nM, q2d*15): 77.4 g
- Blood Glucose AUC (Day 0-29) % Change Vs Control ([2]; 6.078 nM, q2d*15): −52.29%
- Blood Glucose AUC (Day 0-29) (mg/dL*days) Mean ([2]; 6.078 nM, q2d*15): 8086.1***## mg/dL*days
- Body Weight Change Day 29, % Change vs Day 0 Mean ([2]; 6.078 nM, q2d*15): −5.5%
- Cumulative Food Intake (g) Day 0-29 Mean ([2]; 6.078 nM, q2d*15): 66.7 g
- % HbA1C Mean ([2]; Day 0, 3.04 nM, q2d*15): 7.74%
- Insulin (ng/mL) Mean ([2]; Day 0, 3.04 nM, q2d*15): 13.9 ng/mL
- % HbA1C Mean ([2]; Day 0, 6.078 nM, q2d*15): 7.83%
- Insulin (ng/mL) Mean ([2]; Day 0, 6.078 nM, q2d*15): 21.8 ng/mL
- % HbA1C Mean ([2]; Day 14, 3.04 nM, q2d*15): 5.67 ***# %
- Insulin (ng/mL) Mean ([2]; Day 14, 3.04 nM, q2d*15): 50.8* ng/mL
- % HbA1C Mean ([2]; Day 14, 6.078 nM, q2d*15): 5.64 ***# %
- Insulin (ng/mL) Mean ([2]; Day 14, 6.078 nM, q2d*15): 58.1** ng/mL
- % HbA1C Mean ([2]; Day 29, 3.04 nM, q2d*15): 5.33 ***# %
- Insulin (ng/mL) Mean ([2]; Day 29, 3.04 nM, q2d*15): 53.8** ng/mL
- % HbA1C Mean ([2]; Day 29, 6.078 nM, q2d*15): 5.16 ***# %
- Insulin (ng/mL) Mean ([2]; Day 29, 6.078 nM, q2d*15): 68.2*** ng/mL
- HbA1c, blood glucose, food consumption and body weight vs control ([2]; about 3 nM and 6 nM dose): significant reduction
- Blood Glucose AUC (Day 30-37) % Change vs Control [2, 3]: −32.62%
- Blood Glucose AUC (Day 30-37) (mg/dL*days) Mean [2, 3]: 2420.0** mg/dL*days
- Blood Glucose AUC (Day 38-45) % Change vs Control [2, 3]: −8.82%
- Blood Glucose AUC (Day 38-45) (mg/dL*days) Mean [2, 3]: 3284.0* mg/dL*days
- Blood Glucose AUC (Day 30-37) % Change vs Control ([2]; earlier dose 6.078 nM): −39.65%
- Blood Glucose AUC (Day 30-37) (mg/dL*days) Mean ([2]; earlier dose 6.078 nM): 2167.7*** mg/dL*days
- Blood Glucose AUC (Day 38-45) % Change vs Control ([2]; earlier dose 6.078 nM): −12.97%
- Blood Glucose AUC (Day 38-45) (mg/dL*days) Mean ([2]; earlier dose 6.078 nM): 3134.7** mg/dL*days
- % HbA1C Mean [2, 4]: 7.1* %
- Delta HbA1C vs. DC [2, 4]: −1.4
- Insulin (ng/mL) Mean [2, 4]: 15.5 ng/mL
- % HbA1C Mean [2, 5]: 7.2* %
- Delta HbA1C vs. DC [2, 5]: −1.3
- Insulin (ng/mL) Mean [2, 5]: 18.4 ng/mL
- Body Weight % Change vs Day 45 Mean ([2]; recovery study, earlier dose 3.04 nM): 6.1%
- Body Weight % Change vs Day 45 Mean ([2]; recovery study, earlier dose 6.078 nM (6.0788 nM given for Compound 13)): 5.7%
